Test results from PMC5218480 (PLoS ONE, 2017).

Tested on: MV-4-11 cells
Test: Gene expression microarray analysis (Affymetrix PrimeView) and GSEA
Format: cell-based, human
Parameters: RFU PODN (11730768_x_at) / Fold change /veh PODN (11730768_x_at) / RFU LINC00158 (11744669_a_at) / Fold change /veh LINC00158 (11744669_a_at) / RFU DUSP10 (11751237_a_at) / Fold change /veh DUSP10 (11751237_a_at) / RFU ID3 (11757404_x_at) / Fold change /veh ID3 (11757404_x_at) / RFU PLEKHG5 (11737974_s_at) / Fold change /veh PLEKHG5 (11737974_s_at) / RFU LRRC4B (11730491_at) / Fold change /veh LRRC4B (11730491_at) / RFU GIMAP4 (11747438_a_at) / Fold change /veh GIMAP4 (11747438_a_at) / RFU KRT8 (11758183_x_at) / Fold change /veh KRT8 (11758183_x_at) / RFU CNN1 (11734310_a_at) / Fold change /veh CNN1 (11734310_a_at) / RFU VPS37D (11726825_at) / Fold change /veh VPS37D (11726825_at) / RFU C10orf10 (11716522_x_at) / Fold change /veh C10orf10 (11716522_x_at) / RFU KIR2DL2 /// KIR2DL4 /// KIR2DL5A /// KIR2DL5B /// KIR2DS1 /// KIR2DS2 /// KIR2DS3 /// KIR2DS4 /// KIR3DL3 /// KIR3DL3 /// KIR3DS1 (11738374_at) / Fold change /veh KIR2DL2 /// KIR2DL4 /// KIR2DL5A /// KIR2DL5B /// KIR2DS1 /// KIR2DS2 /// KIR2DS3 /// KIR2DS4 /// KIR3DL3 /// KIR3DL3 /// KIR3DS1 (11738374_at) / RFU C1QL1 (11718748_at) / Fold change /veh C1QL1 (11718748_at) / RFU TMPRSS4 (11747572_a_at) / Fold change /veh TMPRSS4 (11747572_a_at) / RFU HAMP (11756126_x_at) / Fold change /veh HAMP (11756126_x_at) / RFU RNFT2 (11725882_a_at) / Fold change /veh RNFT2 (11725882_a_at) / RFU NR4A2 (11747474_a_at) / Fold change /veh NR4A2 (11747474_a_at) / RFU ABCC12 (11746883_a_at) / Fold change /veh ABCC12 (11746883_a_at) / RFU TMEM136 (11760407_x_at) / Fold change /veh TMEM136 (11760407_x_at) / RFU CLDN22 /// WWC2 (11732394_at) / Fold change /veh CLDN22 /// WWC2 (11732394_at) / RFU HLA-DPB1 (11760878_x_at) / Fold change /veh HLA-DPB1 (11760878_x_at) / RFU SPINT1 (11716480_a_at) / Fold change /veh SPINT1 (11716480_a_at) / RFU GAP43 (11754022_s_at) / Fold change /veh GAP43 (11754022_s_at) / RFU A4GNT (11735810_at) / Fold change /veh A4GNT (11735810_at) / RFU PRB3 (11715151_x_at) / Fold change /veh PRB3 (11715151_x_at) / RFU TUBB4B (11761932_at) / Fold change /veh TUBB4B (11761932_at) / RFU CAPN14 (11732068_a_at) / Fold change /veh CAPN14 (11732068_a_at) / RFU TMCC2 (11721928_a_at) / Fold change /veh TMCC2 (11721928_a_at) / RFU IRGQ (11745062_a_at) / Fold change /veh IRGQ (11745062_a_at) / RFU FAM174B (11720279_a_at) / Fold change /veh FAM174B (11720279_a_at) / RFU TMPRSS4 (11748680_a_at) / Fold change /veh TMPRSS4 (11748680_a_at) / RFU FAM212B (11763350_a_at) / Fold change /veh FAM212B (11763350_a_at) / RFU PLEKHG5 (11743358_a_at) / Fold change /veh PLEKHG5 (11743358_a_at) / RFU ZSCAN30 (11745921_a_at) / Fold change /veh ZSCAN30 (11745921_a_at) / RFU CMKLR1 (11741424_a_at) / Fold change /veh CMKLR1 (11741424_a_at) / RFU LOC101060620 /// MAPK8IP1 (11723275_at) / Fold change /veh LOC101060620 /// MAPK8IP1 (11723275_at) / RFU SPTSSB (11747773_x_at) / Fold change /veh SPTSSB (11747773_x_at) / RFU PRSS12 (11739890_at) / Fold change /veh PRSS12 (11739890_at) / RFU BIN1 (11741810_x_at) / Fold change /veh BIN1 (11741810_x_at) / RFU WNT11 (11732464_a_at) / Fold change /veh WNT11 (11732464_a_at) / RFU C10orf10 (11716521_a_at) / Fold change /veh C10orf10 (11716521_a_at) / RFU C5orf56 (11738089_at) / Fold change /veh C5orf56 (11738089_at) / RFU CYB561 (11721691_x_at) / Fold change /veh CYB561 (11721691_x_at) / RFU ANKRD19P (11752326_a_at) / Fold change /veh ANKRD19P (11752326_a_at) / RFU OR2T12 /// OR2T33 /// OR2T8 (11738714_s_at) / Fold change /veh OR2T12 /// OR2T33 /// OR2T8 (11738714_s_at) / RFU VCAN (11748164_a_at) / Fold change /veh VCAN (11748164_a_at) / RFU JSRP1 (11732532_at) / Fold change /veh JSRP1 (11732532_at) / RFU KRTAP10-11 (11738290_x_at) / Fold change /veh KRTAP10-11 (11738290_x_at) / RFU MYO3A (11730013_a_at) / Fold change /veh MYO3A (11730013_a_at) / RFU EBF3 (11725865_a_at) / Fold change /veh EBF3 (11725865_a_at) / RFU CAMK2N1 (11719241_x_at) / Fold change /veh CAMK2N1 (11719241_x_at) / RFU C5orf56 (11738088_a_at) / Fold change /veh C5orf56 (11738088_a_at) / RFU OLFML3 (11715873_a_at) / Fold change /veh OLFML3 (11715873_a_at) / RFU LOC100653217 /// NTM (11731650_a_at) / Fold change /veh LOC100653217 /// NTM (11731650_a_at) / RFU MAPK11 (11762145_a_at) / Fold change /veh MAPK11 (11762145_a_at) / RFU FIZ1 (11724087_x_at) / Fold change /veh FIZ1 (11724087_x_at) / RFU OASL (11726364_x_at) / Fold change /veh OASL (11726364_x_at) / RFU SOX15 (11748057_x_at) / Fold change /veh SOX15 (11748057_x_at) / RFU CD79A (11719716_a_at) / Fold change /veh CD79A (11719716_a_at) / RFU HIST1H1D (11736915_at) / Fold change /veh HIST1H1D (11736915_at) / RFU CASKIN2 (11723855_a_at) / Fold change /veh CASKIN2 (11723855_a_at) / RFU LOC730098 (11760151_x_at) / Fold change /veh LOC730098 (11760151_x_at) / RFU OR4N2 (11742367_at) / Fold change /veh OR4N2 (11742367_at) / RFU PRRT2 (11749266_a_at) / Fold change /veh PRRT2 (11749266_a_at) / RFU SNX32 (11753110_a_at) / Fold change /veh SNX32 (11753110_a_at) / RFU CDHR5 (11726645_a_at) / Fold change /veh CDHR5 (11726645_a_at) / RFU RCAN1 (11760418_a_at) / Fold change /veh RCAN1 (11760418_a_at) / RFU FAM167A (11723789_a_at) / Fold change /veh FAM167A (11723789_a_at) / RFU FAM26E (11764081_at) / Fold change /veh FAM26E (11764081_at) / RFU ISYNA1 (11749810_s_at) / Fold change /veh ISYNA1 (11749810_s_at) / RFU ACY1 (11761880_at) / Fold change /veh ACY1 (11761880_at) / RFU 11764098_at / Fold change /veh 11764098_at / RFU SAMD14 (11745864_x_at) / Fold change /veh SAMD14 (11745864_x_at) / RFU NPB (11741838_a_at) / Fold change /veh NPB (11741838_a_at) / RFU TMPRSS6 (11731388_a_at) / Fold change /veh TMPRSS6 (11731388_a_at) / RFU KRTAP10-2 (11738614_at) / Fold change /veh KRTAP10-2 (11738614_at) / RFU ARHGAP8 /// PRR5-ARHGAP8 (11727945_x_at) / Fold change /veh ARHGAP8 /// PRR5-ARHGAP8 (11727945_x_at) / RFU KRTAP5-7 /// NADSYN1 (11734609_at) / Fold change /veh KRTAP5-7 /// NADSYN1 (11734609_at) / RFU RASL12 (11751679_a_at) / Fold change /veh RASL12 (11751679_a_at) / RFU CDKN2B (11736163_a_at) / Fold change /veh CDKN2B (11736163_a_at) / RFU PRF1 (11729649_at) / Fold change /veh PRF1 (11729649_at) / RFU, ZNF638 /// ZNF638-IT1 / Fold change vs veh, ZNF638 /// ZNF638-IT1 / RFU, PANK3 / Fold change vs veh, PANK3 / RFU, SH3YL1 / Fold change vs veh, SH3YL1 / RFU, ZEB2 / Fold change vs veh, ZEB2 / RFU, NRIP1 / Fold change vs veh, NRIP1 / RFU, PTTG1IP / Fold change vs veh, PTTG1IP / RFU, CAPN2 / Fold change vs veh, CAPN2 / RFU, MED14 / Fold change vs veh, MED14 / RFU, SNORA58 / Fold change vs veh, SNORA58 / RFU, C1orf63 / Fold change vs veh, C1orf63 / RFU, LRRFIP1 / Fold change vs veh, LRRFIP1 / RFU, NDUFAF7 / Fold change vs veh, NDUFAF7 / RFU, SLC12A2 / Fold change vs veh, SLC12A2 / RFU, IBTK / Fold change vs veh, IBTK / RFU, ESF1 / Fold change vs veh, ESF1 / Fold change vs veh, TMEM50B / RFU, TAOK1 / Fold change vs veh, TAOK1 / RFU, ACBD3 / Fold change vs veh, ACBD3 / RFU, TMA16 / Fold change vs veh, TMA16 / RFU, RWDD3 / Fold change vs veh, RWDD3 / RFU, BCAT1 / Fold change vs veh, BCAT1 / RFU, EDEM3 / Fold change vs veh, EDEM3 / RFU, TMEM33 / Fold change vs veh, TMEM33 / RFU, WDR75 / Fold change vs veh, WDR75 / RFU, AHCTF1 / Fold change vs veh, AHCTF1 / RFU, TFRC / Fold change vs veh, TFRC / RFU, ZDHHC17 / Fold change vs veh, ZDHHC17 / RFU, NOM1 / Fold change vs veh, NOM1 / RFU, ARL8B / Fold change vs veh, ARL8B / RFU, ZBTB11 / Fold change vs veh, ZBTB11 / RFU, TAMM41 / Fold change vs veh, TAMM41 / RFU, KIAA1704 /// LOC100996395 / Fold change vs veh, KIAA1704 /// LOC100996395 / RFU, ING1 / Fold change vs veh, ING1 / RFU, TRMT61B / Fold change vs veh, TRMT61B / RFU, FUBP3 / Fold change vs veh, FUBP3 / RFU, TP53 / Fold change vs veh, TP53 / RFU, TNKS2 / Fold change vs veh, TNKS2 / RFU, ZFP14 / Fold change vs veh, ZFP14 / RFU, ACTR2 / Fold change vs veh, ACTR2 / RFU, PPP3R1 / Fold change vs veh, PPP3R1 / RFU, PIK3R1 / Fold change vs veh, PIK3R1 / RFU, HNRNPA1 / Fold change vs veh, HNRNPA1 / RFU, RNF170 / Fold change vs veh, RNF170 / RFU, ZNF28 / Fold change vs veh, ZNF28 / RFU, RNGTT / Fold change vs veh, RNGTT / RFU, OGT / Fold change vs veh, OGT / RFU, BRD1 / Fold change vs veh, BRD1 / RFU, MARS / Fold change vs veh, MARS / RFU, ZNF655 / Fold change vs veh, ZNF655 / RFU, FAHD1 / Fold change vs veh, FAHD1 / RFU, BDP1 / Fold change vs veh, BDP1 / RFU, LRRCC1 / Fold change vs veh, LRRCC1 / RFU, ARID1A / Fold change vs veh, ARID1A / RFU, ZNF146 / Fold change vs veh, ZNF146 / RFU, ZNF330 / Fold change vs veh, ZNF330 / RFU, GPN3 / Fold change vs veh, GPN3 / RFU, C9orf123 / Fold change vs veh, C9orf123 / RFU, N4BP2L2 / Fold change vs veh, N4BP2L2 / RFU, ARFIP1 / Fold change vs veh, ARFIP1 / RFU, FAM179B / Fold change vs veh, FAM179B / RFU, BCL10 / Fold change vs veh, BCL10 / RFU, UHRF1BP1L / Fold change vs veh, UHRF1BP1L / RFU, BET1 / Fold change vs veh, BET1 / RFU, CNOT2 / Fold change vs veh, CNOT2 / RFU, ZNF268 / Fold change vs veh, ZNF268 / Fold change vs veh, ZNF507 / RFU, DGCR2 / Fold change vs veh, DGCR2 / RFU, WDSUB1 / Fold change vs veh, WDSUB1 / Fold change vs veh, HSP90B1 /// MIR3652 / RFU, ADSS / Fold change vs veh, ADSS / RFU, GK / Fold change vs veh, GK / RFU, ZNF148 / Fold change vs veh, ZNF148 / RFU, TAF9 / Fold change vs veh, TAF9 / RFU, SLC1A5 / Fold change vs veh, SLC1A5 / RFU, SLMO2 / Fold change vs veh, SLMO2 / RFU, ABCC4 / Fold change vs veh, ABCC4 / RFU, LOC101060439 /// RAP1B / Fold change vs veh, LOC101060439 /// RAP1B / RFU, RFX7 / Fold change vs veh, RFX7 / RFU, GTPBP10 / Fold change vs veh, GTPBP10 / RFU, CNEP1R1 / Fold change vs veh, CNEP1R1 / RFU, BIVM-ERCC5 /// ERCC5 / Fold change vs veh, BIVM-ERCC5 /// ERCC5 / RFU, ILF3 / Fold change vs veh, ILF3 / RFU 11762660_at / Fold change /veh 11762660_at / RFU VCAN (11757783_s_at) / Fold change /veh VCAN (11757783_s_at) / RFU DDX43 (11728927_at) / Fold change /veh DDX43 (11728927_at) / RFU KRT8 (11758188_x_at) / Fold change /veh KRT8 (11758188_x_at) / RFU NKD1 (11759106_at) / Fold change /veh NKD1 (11759106_at) / RFU SRD5A1 (11742802_a_at) / Fold change /veh SRD5A1 (11742802_a_at) / RFU TPSAB1 /// TPSB2 (11721975_s_at) / Fold change /veh TPSAB1 /// TPSB2 (11721975_s_at) / RFU GSTM3 (11746129_a_at) / Fold change /veh GSTM3 (11746129_a_at) / RFU IL23R (11737362_x_at) / Fold change /veh IL23R (11737362_x_at) / RFU TMEM51 (11727254_a_at) / Fold change /veh TMEM51 (11727254_a_at) / RFU PIWIL2 (11732686_x_at) / Fold change /veh PIWIL2 (11732686_x_at) / RFU ORM1 (11744905_x_at) / Fold change /veh ORM1 (11744905_x_at) / RFU CCDC152 (11743942_at) / Fold change /veh CCDC152 (11743942_at) / RFU ECM1 (11717891_a_at) / Fold change /veh ECM1 (11717891_a_at) / RFU IL23R (11748794_a_at) / Fold change /veh IL23R (11748794_a_at) / RFU TNFAIP8L3 (11732012_x_at) / Fold change /veh TNFAIP8L3 (11732012_x_at) / RFU MBOAT4 (11741988_at) / Fold change /veh MBOAT4 (11741988_at) / RFU 11764193_at / Fold change /veh 11764193_at / RFU TMEM53 (11763286_at) / Fold change /veh TMEM53 (11763286_at) / RFU MAGEB2 (11727129_at) / Fold change /veh MAGEB2 (11727129_at) / RFU TMEM200A (11744735_a_at) / Fold change /veh TMEM200A (11744735_a_at) / RFU CCDC152 (11751479_a_at) / Fold change /veh CCDC152 (11751479_a_at) / RFU FAM211A (11726209_a_at) / Fold change /veh FAM211A (11726209_a_at) / RFU RGS16 (11746705_a_at) / Fold change /veh RGS16 (11746705_a_at) / RFU VCAN (11755009_s_at) / Fold change /veh VCAN (11755009_s_at) / RFU RHOB (11743442_s_at) / Fold change /veh RHOB (11743442_s_at) / RFU RGS16 (11720943_a_at) / Fold change /veh RGS16 (11720943_a_at) / RFU RGS16 (11720944_at) / Fold change /veh RGS16 (11720944_at) / RFU, VPS4B / Fold change vs veh, VPS4B / RFU, CREB1 / Fold change vs veh, CREB1 / RFU, DNAJC13 / Fold change vs veh, DNAJC13 / RFU, GNAQ / Fold change vs veh, GNAQ / RFU, CDK5R1 / Fold change vs veh, CDK5R1 / RFU, ZRANB3 / Fold change vs veh, ZRANB3 / RFU, CUL4A / Fold change vs veh, CUL4A / RFU, CCNY / Fold change vs veh, CCNY / RFU, UFL1 / Fold change vs veh, UFL1 / RFU, COG3 / Fold change vs veh, COG3 / RFU, DIAPH2 / Fold change vs veh, DIAPH2 / RFU, SKA2 / Fold change vs veh, SKA2 / RFU, AFF3 / Fold change vs veh, AFF3 / RFU, LMF1 / Fold change vs veh, LMF1 / RFU, IPO11 / Fold change vs veh, IPO11 / RFU, DFFB / Fold change vs veh, DFFB / RFU, FOXP1 / Fold change vs veh, FOXP1 / RFU, CARD8 / Fold change vs veh, CARD8 / RFU, STRN3 / Fold change vs veh, STRN3 / RFU, ADK / Fold change vs veh, ADK / RFU, RASSF2 / Fold change vs veh, RASSF2 / RFU, WIPF1 / Fold change vs veh, WIPF1 / RFU, LARP1B / Fold change vs veh, LARP1B / RFU, RASA1 / Fold change vs veh, RASA1 / RFU, RB1 / Fold change vs veh, RB1 / RFU, PPFIA1 / Fold change vs veh, PPFIA1 / RFU, MAT2A / Fold change vs veh, MAT2A / RFU, CCT5 / Fold change vs veh, CCT5 / RFU, WDR92 / Fold change vs veh, WDR92 / RFU, CUX1 / Fold change vs veh, CUX1 / RFU, TTC7A / Fold change vs veh, TTC7A / RFU, TMEM135 / Fold change vs veh, TMEM135 / RFU, DEPTOR / Fold change vs veh, DEPTOR / RFU, CPM / Fold change vs veh, CPM / RFU, DNAJB6 / Fold change vs veh, DNAJB6 / RFU, CACNA2D3 / Fold change vs veh, CACNA2D3 / RFU, DTX4 / Fold change vs veh, DTX4 / RFU, TFCP2 / Fold change vs veh, TFCP2 / RFU, GMCL1 /// GMCL1P1 / Fold change vs veh, GMCL1 /// GMCL1P1 / RFU, AEBP2 / Fold change vs veh, AEBP2 / RFU, SNHG1 /// SNORD22 /// SNORD25 /// SNORD26 /// SNORD27 /// SNORD28 /// SNORD29 /// SNORD31 / Fold change vs veh, SNHG1 /// SNORD22 /// SNORD25 /// SNORD26 /// SNORD27 /// SNORD28 /// SNORD29 /// SNORD31 / Fold change (Aza/veh), C12orf56 (ProbeSet 11735607_a_at) / Fold change (ACY-1035/veh), C12orf56 (ProbeSet 11735607_a_at) / Fold change (Aza/veh), FGFR1OP (ProbeSet 11751329_s_at) / Fold change (ACY-1035/veh), FGFR1OP (ProbeSet 11751329_s_at) / Fold change (Aza/veh), VPS36 (ProbeSet 11739960_a_at) / Fold change (ACY-1035/veh), VPS36 (ProbeSet 11739960_a_at) / RFU SYPL1 (11715823_x_at) / Fold change /veh SYPL1 (11715823_x_at) / RFU IGFBP7 (11715501_s_at) / Fold change /veh IGFBP7 (11715501_s_at) / RFU REEP3 (11722064_at) / Fold change /veh REEP3 (11722064_at) / RFU IGLL1 (11728026_x_at) / Fold change /veh IGLL1 (11728026_x_at): dose or concentration left out as unconfirmed
Settings: ProbeSet 11724526_at; LIST B

Nc1ncn([C@@H]2O[C@H](CO)[C@@H](O)[C@H]2O)c(=O)n1 [azacitidine]
Fold change vs veh, FAHD1: 0.84
